Where two headings read alike, the source gives them in different places.
Tests used:
[1] = test system: SOX17 (endoderm marker) in RUES2-GLR cells; assay: DevTox GLR-Endo assay: decrease in percent SOX17-positive cells (AEID 3094, Sox17_dn); conditions: for Hit Call: Table S2, SOX17-positive cells, cutoff 3*bmad; for DevTox ACC: Table S2, percent SOX17-positive cells; for HIT−CALL: tcpl plot AEID3094, COFF 20.3; for hit call designation (in words): DevTox GLR-Endo prediction against developmental toxicant classification
Method in brief: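 Readouts are loss of SOX17-positive fraction and reduced cell number in endoderm-differentiating RUES2-GLR cells after 48 h of chemical exposure. Controls: undifferentiated and differentiated cells, 0.2% DMSO, and 1 µM SB431542; at least four biological replicates.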

[2] = in vitro; conditions: human
[3] = test system: RUES2-GLR cells; assay: DevTox GLR-Endo assay: decrease in total cell count, cytotoxicity (AEID 3098, CellCount_dn); conditions: for Emax: Homo sapiens, read-out: Cell Count % Max Inhibition
[4] = test system: SOX17 (endoderm marker) in RUES2-GLR cells; assay: DevTox GLR-Endo assay: increase in percent SOX17-positive cells (AEID 3093, Sox17_up); format: cell-based, human; conditions: for Emax: Homo sapiens; for HIT−CALL: tcpl plot AEID3093, COFF 20.3
Experimental: (§1) The total test chemical incubation period was 48 h.
(§2) (Supplementary Materials).

[5] = test system: BRA (mesoderm marker) in RUES2-GLR cells; assay: DevTox GLR-Endo assay: increase in percent BRA-positive cells (AEID 3096, Bra_up); format: cell-based, human; conditions: for HIT−CALL: tcpl plot AEID3096, COFF 0.774; for MAX_MEAN: tcpl plot AEID3096, maximum mean response; for MAX_MED: tcpl plot AEID3096, maximum median response
Experimental: as §1, §2

[6] = test system: SOX17 in H9 human ESC line; conditions: SOX17 half-maximal inhibition concentration; read-out: hPST IC50; cited from earlier work
[7] = test system: H9 human ESC line; conditions: cited from earlier work
[8] = test system: SOX2 (ectoderm and pluripotency marker) in RUES2-GLR cells; assay: DevTox GLR-Endo assay: increase in percent SOX2-positive cells (AEID 3095, Sox2_up); conditions: for MAX_MEAN: tcpl plot AEID3095, maximum mean response; for MAX_MED: tcpl plot AEID3095, maximum median response;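 as to all read-outs here: cells exposed to test chemicals for 48 h in total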
Experimental: RUES2-GLR cells were seeded 24 h prior to differentiation initiation into vitronectin-coated 384-well CellCarrier Ultra plates (10.6 mm^2/well) (Perkin Elmer, Waltham, MA, USA). Vitronectin (0.5 µg/cm^2)-coated plates were prepared and stored at 4 °C, wrapped in parafilm, for less than seven days and incubated at room temperature for one hour prior to cell seeding. […] Cells were dispensed into 20 µL coating solution using a Certus FLEX Micro Dispenser (Fritz Gyger, Gwatt, Switzerland) with a 0.45 µm valve to a final volume of 100 µL and density of 2.8 × 10^3 cells per well.
Following a 24 h post-seeding incubation period (Time = 0 h) (Figure 3A), directed endoderm differentiation was initiated with the PSC Definitive Endoderm Induction kit (Gibco, Waltham, MA, USA). […] A target dilution series (0.002–200 µM) was generated by dispensing variable nanoliter volumes of test chemical and backfilling with a complementary volume of DMSO using Echo Cherry Pick software (v.1.6.2). Wells were backfilled with 50 µL of induction medium using a Certus FLEX Micro Dispenser with 0.45 µm valves. Test compound treatment plates were mixed on a Multi-Microplate Genie mixer at 700 rpm for 10 min and subsequently incubated for two hours in a humidified atmosphere at 37 °C with 5% CO2. Each chemical treatment (0 h–Medium A; 24 h–Medium B) were prepared the day of treatment. At 0 h, cell culture medium was aspirated from the assay plate at a rate of 1 µL/s and 40 µL of Medium A ± test chemical applied using a CyBio FeliX automated liquid handler (Analytik Jena, Jena, Germany). At 24 h, conditioned cell culture medium was aspirated and 40 µL of Medium B ± test chemical was applied. At 48 h, cells were prepared for high-content image acquisition by fixation and nuclear staining. The total test chemical incubation period was 48 h. For fixation, a 4% paraformaldehyde (PFA) solution was achieved by adding 40 µL of 8% PFA directly to cell culture medium using a CyBio FeliX liquid handler. […] Following an additional 30 min incubation period at room temperature, staining solution was aspirated, 50 µL of DPBS was added, and plate sealed with MicroAmp Optical Adhesive Film (Applied Biosystems, Waltham, MA, USA).
Images were acquired within 12 h post-fixation using an Opera Phenix High-Content Screening System (Perkin Elmer, Waltham, MA, USA). […] Cell identification and mean biomarker fluorescent intensities were calculated using Harmony image analysis software (Perkin Elmer, Waltham, MA, USA). Cell nuclei were identified using the object classifying algorithm C of the software with border objects excluded using the “Remove Border Objects” feature. Mean cell biomarker intensity statistics were gathered from each object and exported for further analysis using a custom script in Python version 3.7.4 [61] […] For each plate, pluripotent-negative control wells were used to establish baseline intensity values and a cutoff threshold for determining SOX17 and BRA biomarker-positive cells. Endoderm differentiated positive control wells were used to establish baseline intensity values and a cutoff threshold for SOX2-positive cells. Cells with a mean intensity five times the baseline median absolute deviation (5*bmad) above the median cell intensity for plate-based control population technical replicates were considered positive. Well-based cell counts, reflected by the sum of total counted objects from all fields, were used to calculate the percent responders for each respective biomarker and evaluate cytotoxicity. Well-level results were exported for data modeling in the ToxCast Pipeline.
The ToxCast Pipeline R package (tcpl v.2.0.2) was used to normalize, fit, and qualify concentration-response screening data [63].

[9] = cited from earlier work; for Development Toxicant Classification: Table S2; for Classification: developmental toxicant classification (Teratogen / Non-Teratogen) of reference and training chemicals, ref DOI per chemical: 10.1093/toxsci/kft239, 10.1093/toxsci/kfaa014, 10.1177/026119290203000204, 10.1038/s41598-020-59542-x; for DT Class.: developmental toxicant classification; for Developmental Toxicant Classification: reference chemicals
[10] = Homo sapiens, 48 h, read-out: DevTox-GLR Endo AC50 (µM), SOX17 half-maximal activity concentration, 48 h exposure
[11] = Homo sapiens, read-out: DevTox % Max Inhibition
[12] = Homo sapiens, read-out: MAX_MEAN
[13] = Homo sapiens, read-out: MAX_MED
[14] = tcpl plot AEID3093, maximum mean response, read-out: MAX_MEAN
[15] = tcpl plot AEID3093, maximum median response, read-out: MAX_MED
[16] = cytotoxicity half-maximal concentration
[17] = chemicals common with quickPredict
[18] = Homo sapiens, read-out: ga (winning model), tcpl plot AEID3094, gain parameter of winning curve fit (log concentration, µM axis), hit calls only (converted)
[19] = Homo sapiens, read-out: tp (winning model)
[20] = RUES2-GLR cells under directed endoderm differentiation

CC1(C)S[C@@H]2[C@H](NC(=O)Cc3ccccc3)C(=O)N2[C@H]1C(=O)O [Penicillin G]
AC50 [1, 10]: > 200 µM
Emax [1, 11]: 10.3%
Emax [1, 12]: 12.2%
Emax [1, 13]: 10.3%
Hit Call [1]: Negative
DevTox ACC ([1]; 48 h exposure): >200 µM
HIT−CALL [1]: 0
CC50 at 48 h [2]: > 200 µM
Emax [3]: 13.3%
Cell Count ACC ([3]; human, 48 h): >200 µM
Emax [4, 14]: 13.2%
Emax [4, 15]: 12.4%
HIT−CALL [4]: 0
HIT−CALL [5]: 0
MAX_MEAN [5]: 0.857 Percent Activity
MAX_MED [5]: 0.92 Percent Activity
IC50 [6]: > 400 µM
hPST TC50 [7, 16]: >400 µM
hPST TC50 ([7]; hPST cytotoxicity): > 400 µM
MAX_MEAN [8]: 2.17 Percent Activity
MAX_MED [8]: 0.88 Percent Activity

O=C1NS(=O)(=O)c2ccccc21 [Saccharin]
AC50 [1, 10]: > 200 µM
Emax [1, 11]: 13%
Emax [1, 12]: 11%
Emax [1, 13]: 13%
Hit Call [1]: Negative
DevTox ACC ([1]; 48 h exposure): >200 µM
HIT−CALL [1]: 0
CC50 at 48 h [2]: > 200 µM
Emax [3]: 17.9%
Cell Count ACC ([3]; human, 48 h): >200 µM
Emax [4, 14]: 10.2%
Emax [4, 15]: 10.9%
HIT−CALL [4]: 0
HIT−CALL [5]: 0
MAX_MEAN [5]: 1.1 Percent Activity
MAX_MED [5]: 1.04 Percent Activity
IC50 [6]: > 400 µM
hPST TC50 [7, 16]: >400 µM
hPST TC50 ([7]; hPST cytotoxicity): > 400 µM
Development Toxicant Classification [9]: Negative
Classification [9]: Non-Teratogen
DT Class. ([9]; chemicals common with hPST): Neg
DT Class. [9, 17]: Neg
Developmental Toxicant Classification [9]: Negative
MAX_MEAN [8]: 0.945 Percent Activity
MAX_MED [8]: 0.563 Percent Activity

Cc1nc2sccn2c(=O)c1CCN1CCC(=C(c2ccc(F)cc2)c2ccc(F)cc2)CC1 [Ritanserin]
AC50 [1, 10]: 9.98 µM
Emax [1, 11]: 102%
Emax [1, 12]: 102%
Emax [1, 13]: 102%
AC50 [1, 18]: 9.98 µM
Emax [1, 19]: 102%
Hit Call [1]: Positive
DevTox ACC ([1]; 48 h exposure): 8.389 µM
HIT−CALL [1]: 1
CC50 at 48 h [2, 20]: 9.47 µM
Emax [3]: 94.7%
Cell Count ACC ([3]; Table S2, 48 h exposure): 6.426 µM
Emax [4, 14]: -0.644%
Emax [4, 15]: -1.38%
HIT−CALL [4]: 0
HIT−CALL [5]: 1
MAX_MEAN [5]: 2.65 Percent Activity
MAX_MED [5]: 3.04 Percent Activity
IC50 [6]: 7.3 µM
hPST TC50 [7, 16]: 27 µM
hPST TC50 ([7]; hPST cytotoxicity): 27 µM
Development Toxicant Classification [9]: Positive
Classification [9]: Teratogen
DT Class. ([9]; chemicals common with hPST): Pos
AC50 ([8]; Homo sapiens, read-out: ga (winning model)): 158 µM
Emax [8, 19]: 4.15%
MAX_MEAN [8]: 2.33 Percent Activity
MAX_MED [8]: 1.82 Percent Activity

CC(=O)Oc1ccccc1C(=O)O [Aspirin]
AC50 [1, 10]: > 200 µM
Emax [1, 11]: 12.4%
Emax [1, 12]: 13.1%
Emax [1, 13]: 12.4%
Hit Call [1]: Negative
DevTox ACC ([1]; 48 h exposure): >200 µM
HIT−CALL [1]: 0
CC50 at 48 h [2, 20]: > 200 µM
Emax [3]: 2.85%
Cell Count ACC ([3]; human, 48 h): >200 µM
Emax [4, 14]: -3.36%
Emax [4, 15]: -3.07%
HIT−CALL [4]: 0
HIT−CALL [5]: 1
MAX_MEAN [5]: 1.04 Percent Activity
MAX_MED [5]: 1.03 Percent Activity
IC50 [6]: > 200 µM
hPST TC50 [7, 16]: >200 µM
hPST TC50 ([7]; hPST cytotoxicity): > 200 µM
Development Toxicant Classification [9]: Negative
Classification [9]: Non-Teratogen
DT Class. ([9]; chemicals common with hPST): Neg
DT Class. [9, 17]: Neg
Developmental Toxicant Classification [9]: Negative
MAX_MEAN [8]: 0.503 Percent Activity
MAX_MED [8]: 0.512 Percent Activity

Oc1cc(O)c2c(c1)O[C@H](c1ccc(O)c(O)c1)[C@@H](O)C2 [Cianidanol]
SOX17 ACC relative to cytotoxic concentration (in words) [1]: below cytotoxic concentrations
hit call designation (in words) [1]: false positive
AC50 [1, 10]: 93 µM
Emax [1, 11]: 39.8%
Emax [1, 12]: 39.3%
Emax [1, 13]: 39.8%
AC50 [1, 18]: 93.3 µM
Emax [1, 19]: 39.4%
Hit Call [1]: Positive
DevTox ACC ([1]; 48 h exposure): 93.5186 µM
AC50 ([1]; read-out: DevTox-GLR Endo AC50, SOX17 half-maximal activity concentration, 48 h exposure): 92.9 µM
HIT−CALL [1]: 1
CC50 at 48 h [2, 20]: 194 µM
Emax [3]: 29.6%
Cell Count ACC ([3]; human, 48 h): 180.189 µM
Emax [4, 14]: 6.18%
Emax [4, 15]: 7.45%
HIT−CALL [4]: 0
HIT−CALL [5]: 0
MAX_MEAN [5]: 1.32 Percent Activity
MAX_MED [5]: 1.37 Percent Activity
IC50 [6]: 97 µM
hPST TC50 [7, 16]: 200 µM
hPST TC50 ([7]; hPST cytotoxicity): 200 µM
Development Toxicant Classification [9]: Negative
DT Class. ([9]; chemicals common with hPST): Neg
MAX_MEAN [8]: 0.447 Percent Activity
MAX_MED [8]: 0.456 Percent Activity

O=C(c1ccc(F)cc1)C1CCN(CCn2c(=O)[nH]c3ccccc3c2=O)CC1 [Ketanserin]
hit call designation (in words) [1]: false positive
AC50 [1, 10]: 36.6 µM
Emax [1, 11]: 33.3%
Emax [1, 12]: 36.9%
Emax [1, 13]: 33.3%
AC50 [1, 18]: 36.3 µM
Emax [1, 19]: 31.8%
Hit Call [1]: Positive
DevTox ACC ([1]; 48 h exposure): 39.2719 µM
HIT−CALL [1]: 1
CC50 at 48 h [2]: 57.5 µM
Emax [3]: 68.7%
Cell Count ACC ([3]; human, 48 h): 33.5346 µM
Emax [4, 14]: 5.18%
Emax [4, 15]: 5.62%
HIT−CALL [4]: 0
HIT−CALL [5]: 0
MAX_MEAN [5]: 1.82 Percent Activity
MAX_MED [5]: 2.05 Percent Activity
IC50 [6]: > 200 µM
hPST TC50 [7, 16]: >200 µM
hPST TC50 ([7]; hPST cytotoxicity): > 200 µM
Development Toxicant Classification [9]: Negative
Classification [9]: Non-Teratogen
DT Class. ([9]; chemicals common with hPST): Neg
MAX_MEAN [8]: 1.16 Percent Activity
MAX_MED [8]: 1.15 Percent Activity

— publication PMC9321663, “The DevTox Germ Layer Reporter Platform: An Assay Adaptation of the Human Pluripotent Stem Cell Test” (Toxics, 2022)
